One test deals with IgG. In words: IgG produced in in vitro culture of spleen cells from DNP-As immunized mice (ELISA). It counts as cell-based, BALB/c mice. Particulars: Mus musculus, 96 h, spleen cell culture, 37° C., 4 days; for inhibition at 5 µg/mL: 5 μg/ml; for inhibition at 10 µg/mL: 10 μg/ml; for inhibition at 40 µg/mL: 40 μg/ml; for inhibition at 20 µg/mL: 20 μg/ml; for inhibition at 2.5 µg/mL: 2.5 μg/ml; for inhibition at 1 µg/mL: 1 μg/ml. On the procedure: (§1) Determination of Igs Produced in In Vitro Culture
(§2) BALB/c mice were immunized intraperitoneally with 5 μg of DNP-As adsorbed on 4 mg aluminum hydroxide gel. Four weeks after the immunization, the spleens were excised from the mice and 5×10^7 spleen cells were transferred intravenously into the recipient mice which had been exposed to 600 rad of X-ray irradiation. Immediately after cell transfer, the recipients were then immunized intraperitoneally with 5 μg of DNP-As adsorbed on 4 mg aluminum hydroxide gel to induce adoptive secondary immune response. Further 4 weeks after the immunization of recipients, the spleens were excised from then and the spleen cell suspensions containing 5×10^6 cells/ml were cultured with or without a compound to be tested in 96-well micro-titer plates at 37° C. for 4 days. IgE and IgG secreted into the culture supernatant was each determined correspondingly by ELISA and the inhibitory effect was calculated according to the following equation. [formula]
(In general: An ELISA detects its analyte on a solid surface through an enzyme-linked reagent.)

For another test, the system named is IgE. As to the kind of experiment: IgE produced in in vitro culture of spleen cells from DNP-As immunized mice (ELISA). It counts as cell-based, BALB/c mice. The note with it: Mus musculus, 96 h, spleen cell culture, 37° C., 4 days; for inhibition at 5 µg/mL: 5 μg/ml; for inhibition at 10 µg/mL: 10 μg/ml; for inhibition at 40 µg/mL: 40 μg/ml; for inhibition at 20 µg/mL: 20 μg/ml; for inhibition at 2.5 µg/mL: 2.5 μg/ml; for inhibition at 1 µg/mL: 1 μg/ml. On the procedure:
as §1, §2

The values below come from patent US4904657A, “4H-quinolizin-4-one compounds exhibiting therapeutic activities” (Kissei Pharmaceutical Co., Ltd., priority 1987, dated 1990).

The structures appear in SMILES notation.

Broadly, the inhibition is the relative decrease from the control value, in per cent.

With `CCOC(=O)c1c(-c2ccccc2)c(C#N)c(=O)n2ccccc12` [Compound S-1, 3-Cyano-1-ethoxycarbonyl-2-phenyl-4H-quinolizin-4-one], the inhibition at 5 µg/mL with IgG worked out at 1%; in the test on IgE it was 47%.

As to `CCOC(=O)c1c(-c2ccc(Br)cc2)c(C#N)c(=O)n2ccccc12` [Compound S-3, 2-(4-Bromophenyl)-3-cyano-ethoxycarbonyl-4H-quinolizin-4-one], the inhibition at 49 µg/mL was found to be 15% in the test with IgG (49 μg/ml) and 34% with IgE (49 μg/ml).

For `CCOC(=O)c1c(-c2ccc(OC)cc2)c(C#N)c(=O)n2ccccc12` [Compound S-6, 3-Cyano-1-ethoxycarbonyl-2-(4-methoxyphenyl)-4-quinolizin-4-one], the values for the inhibition at 10 µg/mL in the test with IgG and with IgE were 37% and 65%, respectively.

With `CCOC(=O)c1c(-c2ccc3c(c2)OCO3)c(C#N)c(=O)n2ccccc12` [Compound S-8, 3-Cyano-1-ethoxycarbonyl-2-(3,4-methylenedioxyphenyl)-4H-quinolizin-4-one], the results for the inhibition at 40 µg/mL in the test with IgG and in the test with IgE were 5% and 51%, respectively.

On to `CCOC(=O)c1c(-c2ccc(Cl)cc2Cl)c(C#N)c(=O)n2ccccc12` [Compound S-9, 3-Cyano-2-(2,4-dichlorophenyl)-1-ethoxycarbonyl-4H-quinolizin-4-one], for which the inhibition at 5 µg/mL in the test with IgG was determined as 32%; with IgE, 64%.

With `CCCOC(=O)c1c(-c2ccccc2)c(C#N)c(=O)n2ccccc12` [Compound S-10, 3-Cyano-2-phenyl-1-propoxycarbonyl-4H-quinolizin-4-one], the figures for the inhibition at 10 µg/mL in the test with IgG and with IgE were 22% and 57%, respectively.

As to `COC(=O)c1c(-c2ccccc2)c(C#N)c(=O)n2ccccc12` [Compound S-11, 3-Cyano-1-methoxycarbonyl-2-phenyl-4H-quinolizin-4-one], the inhibition at 40 µg/mL is 19% with IgG and 46% with IgE.

On to `CCOC(=O)c1c(-c2ccc(F)cc2)c(C#N)c(=O)n2ccccc12` [Compound S-12, 3-Cyano-1-ethoxycarbonyl-2-(4-fluorophenyl)-4H-quinolizin-4-one], for which the inhibition at 20 µg/mL in the test on IgG stood at 8%; in the test with IgE it was 50%.

Consider `CCOC(=O)c1c(-c2ccc(C)c(F)c2)c(C#N)c(=O)n2ccccc12` [Compound S-13, 3-Cyano-1-ethoxycarbonyl-2-(3-fluoro-4-methylphenyl)-4H-quinolizin-4-one], for which the values for the inhibition at 40 µg/mL in the test with IgG and in the test on IgE were 26% and 64%, respectively.

On to `CCOC(=O)c1c(-c2cc(OC)c(OC)c(OC)c2)c(C#N)c(=O)n2ccccc12` [Compound S-19, 3-Cyano-1-ethoxycarbonyl-2-(3,4,5-trimethoxyphenyl)-4H-quinolizin-4-one], for which the inhibition at 20 µg/mL with IgG came to 8%; with IgE, 48%.

For the molecule `CCOC(=O)c1c(-c2ccc([N+](=O)[O-])cc2)c(C#N)c(=O)n2ccccc12` [Compound S-20, 3-Cyano-1-ethoxycarbonyl-2-(4-nitrophenyl)-4H-quinolizin-4-one], the inhibition at 10 µg/mL came out at 9% with IgG and 49% in the test with IgE.

`CCOC(=O)c1c(-c2ccc(SC)cc2)c(C#N)c(=O)n2ccccc12` [Compound S-25, 3-Cyano-1-ethoxycarbonyl-2-(4-methylthiophenyl)-4H-quinolizin-4-one]: the inhibition at 20 µg/mL is -4% in the test on IgG and 61% with IgE.

As for `CCOC(=O)c1c(-c2cccc(OC)c2OC)c(C#N)c(=O)n2ccccc12` [Compound S-28, 3-Cyano-2-(2,3-dimethoxyphenyl)-1-ethoxycarbonyl-4H-quinolizin-4-one], the inhibition at 2.5 µg/mL is 14% in the test on IgG and 64% in the test with IgE.

For `CCOC(=O)c1c(-c2cc(OC)cc(OC)c2)c(C#N)c(=O)n2ccccc12` [Compound S-29, 3-Cyano-2-(3,5-dimethoxyphenyl)-1-ethoxycarbonyl-4H-quinolizin-4-one], the inhibition at 40 µg/mL came to 17% with IgG and 67% in the test with IgE.

As to `CCOC(=O)c1c(-c2ccc(O)cc2)c(C#N)c(=O)n2ccccc12` [Compound S-30, 3-Cyano-1-ethoxycarbonyl-2-(4-hydroxyphenyl)-4H-quinolizin-4-one], the inhibition at 40 µg/mL was -20% in the test on IgG and 43% in the test on IgE.

`CCOC(=O)c1c(-c2ccc(O)c(O)c2)c(C#N)c(=O)n2ccccc12` [Compound S-31, 3-Cyano-2-(3,4-dihydroxyphenyl)-1-ethoxycarbonyl-4H-quinolizin-4-one]: the inhibition at 20 µg/mL with IgG was -7%; in the test on IgE it was 54%.

`CCOC(=O)c1c(-c2ccc(O)c(OC)c2)c(C#N)c(=O)n2ccccc12` [Compound S-32, 3-Cyano-1-ethoxycarbonyl-2-(4-hydroxy-3-methoxyphenyl)-4H-quinolizin-4-one]: the results for the inhibition at 20 µg/mL with IgG and with IgE were -9% and 53%, respectively.

Consider `CCOC(=O)c1c(-c2ccc(OC)c(O)c2)c(C#N)c(=O)n2ccccc12` [Compound S-33, 3-Cyano-1-ethoxycarbonyl-2-(3-hydroxy-4-methoxyphenyl)-4H-quinolizin-4-one], for which the inhibition at 40 µg/mL in the test on IgG was found to be 5%; in the test with IgE, 58%.

As to `CCOC(=O)c1c(N2CCCCC2)c(C#N)c(=O)n2ccccc12` [Compound S-35, 3-Cyano-1-ethoxycarbonyl-2-piperidino-4H-quinolizin-4-one], the inhibition at 5 µg/mL worked out at 17% in the test on IgG and 30% in the test with IgE.

For `N#Cc1c(N2CCCCC2)c(C(=O)OCCCc2ccccc2)c2ccccn2c1=O` [Compound S-36, 3-Cyano-1-(3-phenylpropoxycarbonyl)-2-piperidino-4H-quinolizin-4-one], the inhibition at 5 µg/mL with IgG is -4%; in the test with IgE, 39%.

On to `N#Cc1c(N2CCCC2)c(C(=O)OCCCc2ccccc2)c2ccccn2c1=O` [Compound S-38, 3-Cyano-1-(3-phenylpropoxycarbonyl)-2-(1-pyrrolidinyl)-4H-quinolizin-4-one], for which the values for the inhibition at 1 µg/mL in the test with IgG and in the test with IgE were 1% and 68%, respectively.

Regarding `CCOC(=O)c1c(N2CCN(CCO)CC2)c(C#N)c(=O)n2ccccc12` [Compound S-39, 3-Cyano-1-ethoxycarbonyl-2-[4-(2-hydroxyethyl)-piperazin-1-yl]-4H-quinolizin-4-one], the inhibition at 40 µg/mL was 17% in the test with IgG and 63% in the test on IgE.

On to `CCOC(=O)c1c(N2CCN(C=O)CC2)c(C#N)c(=O)n2ccccc12` [Compound S-40, 3-Cyano-1-ethoxycarbonyl-2-(4-formylpiperazin-1-yl)-4H-quinolizin-4-one], for which the inhibition at 40 µg/mL in the test on IgG is 9%; in the test with IgE, 34%.

Regarding `N#Cc1c(N2CCN(C=O)CC2)c(C(=O)OCCCc2ccccc2)c2ccccn2c1=O` [Compound S-41, 3-Cyano-2-(4-formylpiperazin-1-yl)-1-(3-phenylpropoxycarbonyl)-4H-quinolizin-4-one], the inhibition at 2.5 µg/mL turned out to be 9% in the test with IgG and 75% in the test on IgE.

As for `CCOC(=O)c1c(N2CCN(C)CC2)c(C#N)c(=O)n2ccccc12` [Compound S-42, 3-Cyano-1-ethoxycarbonyl-2-(4-methylpiperazin-1-yl)-4H-quinolizin-4-one], the inhibition at 40 µg/mL in the test with IgG was 19%; with IgE, 63%.

With `CN1CCN(c2c(C#N)c(=O)n3ccccc3c2C(=O)OCCCc2ccccc2)CC1` [Compound S-43, 3-Cyano-2-(4-methylpiperazin-1-yl)-1-(3-phenylpropoxycarbonyl)-4H-quinolizin-4-one], the inhibition at 2.5 µg/mL in the test on IgG is 1%; in the test on IgE, 65%.

Take `N#Cc1c(N2CCC(Cc3ccccc3)CC2)c(C(=O)OCCCc2ccccc2)c2ccccn2c1=O` [Compound S-45, 2-(4-Benzylpiperidino)-3-cyano-1-(3-phenylpropoxycarbonyl)-4H-quinolizin-4-one]: the inhibition at 1 µg/mL with IgG is 16%; in the test with IgE, 55%.

Regarding `N#Cc1c(N2CCOCC2)c(C(=O)OCCCc2ccccc2)c2ccccn2c1=O` [Compound S-49, 3-Cyano-2-morpholino-1-(3-phenylpropoxycarbonyl)-4H-quinolizin-4-one], the inhibition at 2.5 µg/mL came out at 21% in the test with IgG and 61% with IgE.

`N#Cc1c(N2CCN(CCO)CC2)c(C(=O)OCCCc2ccccc2)c2ccccn2c1=O` [Compound S-54, 3-Cyano-2-[4-(2-hydroxyethyl)piperazin-1-yl]-1-(3-phenylpropoxycarbonyl)-4H-quinolizin-4-one]: the inhibition at 5 µg/mL worked out at 4% with IgG and 59% with IgE.

For the molecule `CCOC(=O)c1c(N2CCN(CC(=O)N3CCOCC3)CC2)c(C#N)c(=O)n2ccccc12` [Compound S-55, 3-Cyano-1-ethoxycarbonyl-2-(4-morpholinocarbonylmethylpiperazin-1-yl)-4H-quinolizin-4-one], the results for the inhibition at 40 µg/mL in the test on IgG and in the test on IgE were -4% and 36%, respectively.

Consider `N#Cc1c(N2CCN(CC(=O)N3CCOCC3)CC2)c(C(=O)OCCCc2ccccc2)c2ccccn2c1=O` [Compound S-56, 3-Cyano-2-(4-morpholinocarbonylmethylpiperazin-1-yl)-1-(3-phenylpropoxycarbonyl)-4H-quinolizin-4-one], for which the inhibition at 2.5 µg/mL is 1% in the test on IgG and 37% with IgE.
